Structures are written as SMILES. Where a name gives a salt, the structure may show the parent alone.

The test system of one data set is T47D. Put plainly: cells. Also noted: species or system MDA-MB-231, MRC-5; MTT cell viability, growth inhibition versus DMSO control, n = 4. As to conditions: Homo sapiens, 48 h. On the procedure: (§1) Cytotoxicity assays were evaluated against the following cell lines: T-47D ATCC, HTB-133 (hormone-dependent breast cancer), and MRC-5 ATCC, CCL171 (normal embryonic lung) from the American Type Culture Collection (ATCC, Manassas, VA) as well as MDA-MB-231 ((hormone-independent breast cancer) from M.D. Anderson Cancer Center, Houston, TX). […] The cutoff concentration is 50 μg mL^–1. Cell viability was determined using the MTT assay. […] The selectivity index between the T47D cancer cell line and the MRC-5 normal cell line is 13.5. […] In addition, this compound was previously reported to be noncytotoxic to MCF-7 cancer cell line.[36] This means that the growth inhibitory effect of hericerin depends on the types of breast cancer cell. T47D, MDA-MB-231, and MCF-7 are popular models in breast cancer studies. The T47D and MCF-7 are hormone-dependent breast cancer cells, but MDA-MB-231 is a hormone-independent breast cancer cell. […] Thus, hericerin (13) may be a good candidate to develop an anticancer agent against progesterone-sensitive breast cancer cells. Moreover, hericerin was reported to inhibit the growth of A549, SK-OV-3, SK-MEL-2, HCT-15, and HL-60 cancer cell lines.[10],[38] To determine the possible mechanism, we performed an apoptosis assay. First, T47D and MDA-MB-231 breast cancer cells were exposed to compound 13 for 48 h, and the abundance of two apoptotic markers, namely, PARP and procaspase 3, was determined by Western blot.

Another data set can be described thus: in vitro. Set-up: species or system T47D, MDA-MB-231; MTT cell viability, growth inhibition versus DMSO control, n = 4. As to conditions: human, mrc-5 cells; read-out: MRC-5 IC50. On the procedure: as §1, with “To determine the possible mechanism, we performed an apoptosis assay.” left out
For the next data set, the target named is T1, xanthine oxidase (Bos taurus, UniProt P80457).
T1 construct: gene XDH
The data set can be described thus: biochemical. Set-up: xanthine oxidase inhibition (IXO assay), dose-response, n = 3.

The subject of the next data set is MDA-MB-231. The data set can be described thus: cells. Also noted: species or system T47D, MRC-5; MTT cell viability, growth inhibition versus DMSO control, n = 4. As to conditions: Homo sapiens, MDA-MB-231, 48 h. As to the method: as §1, with “To determine the possible mechanism, we performed an apoptosis assay.” left out

T1 sequence (P80457 2-1332): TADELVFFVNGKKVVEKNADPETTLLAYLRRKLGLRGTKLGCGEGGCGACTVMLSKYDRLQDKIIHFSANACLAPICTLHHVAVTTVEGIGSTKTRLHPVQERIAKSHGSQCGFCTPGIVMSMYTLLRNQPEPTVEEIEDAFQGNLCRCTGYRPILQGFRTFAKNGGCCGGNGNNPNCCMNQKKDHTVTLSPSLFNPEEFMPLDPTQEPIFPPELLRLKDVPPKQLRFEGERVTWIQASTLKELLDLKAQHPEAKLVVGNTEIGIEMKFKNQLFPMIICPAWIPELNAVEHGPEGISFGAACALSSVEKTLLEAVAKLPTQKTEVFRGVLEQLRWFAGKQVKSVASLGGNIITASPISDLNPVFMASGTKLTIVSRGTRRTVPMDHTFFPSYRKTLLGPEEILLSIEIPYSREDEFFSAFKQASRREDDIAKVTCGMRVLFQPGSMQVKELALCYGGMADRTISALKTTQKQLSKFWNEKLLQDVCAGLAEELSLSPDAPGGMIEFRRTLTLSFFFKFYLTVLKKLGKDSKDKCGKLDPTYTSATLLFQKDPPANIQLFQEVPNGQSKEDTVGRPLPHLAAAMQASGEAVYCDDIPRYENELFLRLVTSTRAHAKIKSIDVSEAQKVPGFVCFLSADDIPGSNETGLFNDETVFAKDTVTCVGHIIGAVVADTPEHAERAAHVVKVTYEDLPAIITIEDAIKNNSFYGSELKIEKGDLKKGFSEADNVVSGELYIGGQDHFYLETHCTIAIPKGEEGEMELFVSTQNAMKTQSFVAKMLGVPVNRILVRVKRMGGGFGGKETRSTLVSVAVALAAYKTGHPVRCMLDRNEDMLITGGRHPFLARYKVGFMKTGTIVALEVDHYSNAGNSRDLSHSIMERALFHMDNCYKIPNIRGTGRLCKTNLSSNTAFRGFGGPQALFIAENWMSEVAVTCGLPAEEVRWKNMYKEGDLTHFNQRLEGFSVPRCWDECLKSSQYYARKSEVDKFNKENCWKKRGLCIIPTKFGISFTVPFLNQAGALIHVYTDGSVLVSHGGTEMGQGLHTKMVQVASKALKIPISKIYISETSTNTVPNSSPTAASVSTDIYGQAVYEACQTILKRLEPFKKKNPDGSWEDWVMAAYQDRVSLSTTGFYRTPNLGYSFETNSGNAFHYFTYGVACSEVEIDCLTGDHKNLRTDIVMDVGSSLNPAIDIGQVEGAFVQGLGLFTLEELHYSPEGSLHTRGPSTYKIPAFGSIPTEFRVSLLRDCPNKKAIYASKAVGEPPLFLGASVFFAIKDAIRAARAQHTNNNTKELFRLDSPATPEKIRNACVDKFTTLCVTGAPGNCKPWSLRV
Method for xanthine oxidase: The assays were evaluated against DPPH (diphenyl picrylhydracyl radical), XXO (reactive oxygen species generated by xanthine oxidase), and IXO (inhibition of xanthine oxidase). DMSO was used as a solvent and a negative control. […] The cutoff concentration is 100 μg mL^–1 for DPPH and 200 μg mL^–1 for XXO and IXO.

By IC50 is commonly meant the concentration that inhibits the measured activity by half. Read a low IC50 as higher potency. `COc1cccc2c1C(=O)c1c(O)c3c(c(O)c1C2=O)C[C@@](O)(C(=O)CO)C[C@@H]3O[C@H]1C[C@H](N)[C@H](O)[C@H](C)O1` [Doxorubicin·HCl, Doxorubicin hydrochloride] yielded an IC50 in the data set on T47D of 0.69 ± 0.03 µM. The CC50 at 48 h in the data set “in vitro” was found to be 2.75 ± 0.21 µM.

The inhibition is the change of the read-out against control, counted positive when it falls. Low readings indicate a response near the control, high ones a response far below the control. For `Nc1ncnc2c1ncn2[C@@H]1O[C@H](CO)[C@@H](O)[C@H]1O` [compound 6, adenosine], the inhibition at 50 µg/mL in the data set with T47D came to 2.3 ± 2.9%; in the data set with MDA-MB-231, 2.5 ± 5%. The compound also showed an inhibition at 200 µg/mL on xanthine oxidase of 27 ± 7.9%.

For the compound `COc1cc2c(c(O)c1C/C=C(\C)CCC=C(C)C)C(=O)N(CCc1ccccc1)C2` [compound 13, hericerin], the figures for the IC50 with T47D and in the data set with MDA-MB-231 were 5.9 ± 1.6 µM and 57.5 ± 5.4 µM, respectively. At xanthine oxidase, the inhibition at 200 µg/mL stood at 43.3 ± 5%. Further, the CC50 at 48 h in “in vitro” was 79.6 ± 13.7 µM.
